This is an account of results in US7173004B2, “Macrocyclic isoquinoline peptide inhibitors of hepatitis C virus” (Bristol-Myers Squibb Company, priority 2003, dated 2007).

pIC50: −log10 of the molar value.

One assay has as its target T1, HCV NS3/4A protease complex, BMS strain (genotype 1a) (UniProt P27958, C1454S/C1711G, species not given/STRAIN_BMS).
T1 construct: b1001: DNA encoding the recombinant HCV NS3/4A protease complex (amino acids 1027 to 1711) ... a three-lysine solubilizing tail was added at the 3′-end of the NS4A coding region; fused on or other part: Three-lysine solubilising tail at the C-terminus of NS4A; A His tag is implied by the pET21b vector and Ni-NTA purification
As to the kind of experiment: Recombinant HCV NS3/4A protease complex FRET peptide assay, BMS strain. Format: biochemical. The following applies: NS3/4A BMS Strain; activity range classes. An excerpt:
Recombinant HCV NS3/4A Protease Complex FRET Peptide Assay
The purpose of this in vitro assay was to measure the inhibition of HCV NS3 protease complexes, derived from the BMS strain, H77C strain or J416S strain, as described below, by compounds of the present invention. This assay provides an indication of how effective compounds of the present invention would be in inhibiting HCV proteolytic activity.
Serum from an HCV-infected patient was obtained from Dr. T. Wright, San Francisco Hospital. An engineered full-length cDNA (compliment deoxyribonucleic acid) template of the HCV genome (BMS strain) was constructed from DNA fragments obtained by reverse transcription-PCR (RT-PCR) of serum RNA (ribonucleic acid) and using primers selected on the basis of homology between other genotype 1a strains. From the determination of the entire genome sequence, a genotype 1a was assigned to the HCV isolate according to the classification of Simmonds et al. (See P Simmonds, K A Rose, S Graham, S W Chan, F McOmish, B C Dow, E A Follett, P L Yap and H Marsden, J. Clin. Microbiol., 31(6), 1493–1503 (1993)). […] The infectious clones, H77C (1a genotype) and J4L6S (1b genotype) were obtained from R. Purcell (NIH) and the sequences are published in Genbank (AAB67036, see Yanagi, M., Purcell, R. H., Emerson, S. U. and Bukh, J. Proc. Natl. Acad. Sci. U.S.A. 94(16), 8738–8743 (1997); AF054247, see Yanagi, M., St Claire, M., Shapiro, M., Emerson, S. U., Purcell, R. H. and Bukh, J, Virology 244 (1), 161–172. (1998)).
The H77C and J4L6S strains were used for production of recombinant NS3/4A protease complexes. DNA encoding the recombinant HCV NS3/4A protease complex (amino acids 1027 to 1711) for these strains were manipulated as described by P. Gallinari et al. (see Gallinari P, Paolini C, Brennan D, Nardi C, Steinkuhler C, De Francesco R. Biochemistry. 38(17):5620–32, (1999)). Briefly, a three-lysine solubilizing tail was added at the 3′-end of the NS4A coding region. The cysteine in the P1 position of the NS4A-NS4B cleavage site (amino acid 1711) was changed to a glycine to avoid the proteolytic cleavage of the lysine tag. Furthermore, a cysteine to serine mutation was introduced by PCR at amino acid position 1454 to prevent the autolytic cleavage in the NS3 helicase domain. The variant DNA fragment was cloned in the pET21b bacterial expression vector (Novagen) and the NS3/4A complex was expressed in Escherichia coli strain BL21 (DE3) (Invitrogen) following the protocol described by P. Gallinari et al. (see Gallinari P, Brennan D, Nardi C, Brunetti M, Tomei L, Steinkuhler C, De Francesco R., J. Virol. 72(8):6758–69 (1998)) with modifications. Briefly, NS3/4A expression was induced with 0.5 mM Isopropyl β-D-1-thiogalactopyranoside (IPTG) for 22 hr at 20° C. A typical fermentation (10 L) yielded approximately 80 g of wet cell paste. The cells were resuspended in lysis buffer (10 mL/g) consisting of 25 mM N-(2-Hydroxyethyl)piperazine-N′-(2-Ethane Sulfonic acid) (HEPES), pH7.5, 20% glycerol, 500 mM Sodium Chloride (NaCl), 0.5% Triton-X100, 1 microgram/milliliter (“μg/mL”) lysozyme, 5 mM Magnesium Chloride (MgCl2), 1 ug/ml DnaseI, 5 mM β-Mercaptoethanol (βME), Protease inhibitor—Ethylenediamine Tetraacetic acid (EDTA) free (Roche), homogenized and incubated for 20 mins at 4° C. The homogenate was sonicated and clarified by ultra-centrifugation at 235000 g for 1 hr at 4° C. Imidazole was added to the supernatant to a final concentration of 15 mM and the pH adjusted to 8.0. The crude protein extract was loaded on a Nickel-Nitrilotriacetic acid (Ni-NTA) column pre-equilibrated with buffer B (25 mM HEPES, pH8.0, 20% glycerol, 500 mM NaCl, 0.5% Triton-X100, 15 mM imidazole, 5 mM βME). The sample was loaded at a flow rate of 1 mL/min. The column was washed with 15 column volumes of buffer C (same as buffer B except with 0.2% Triton-X100). The protein was eluted with 5 column volumes of buffer D (same as buffer C except with 200 mM Imidazole). […]
Consider `COc1ccc2c(OC3CC4C(=O)NC5(C(=O)O)CC5C=CCCCCCC(NC(=O)OC(C)(C)C)C(=O)N4C3)nccc2c1` (centres unmarked) [Compound 17A], for which the pIC50 is over 7.30.
On the same count and under the same terms, with `COc1ccc2c(OC3CC4C(=O)NC5(C(=O)O)CC5C=CCCCSCC(NC(=O)OC(C)(C)C)C(=O)N4C3)nccc2c1` (centres unmarked) [Compound 18A, 14-tert-Butoxycarbonylamino-18-(6-methoxy-isoquinolin-1-yloxy)-2,15-dioxo-12-thia-3,16-diaza-tricyclo[14.3.0.0^4,6]nonadec-7-ene-4-carboxylic acid] the figure was 6.30 to 7.30.
On to `COc1ccc2c(OC3CC4C(=O)NC5(C(=O)O)CC5C=CCOCCCC(NC(=O)OC(C)(C)C)C(=O)N4C3)nccc2c1` (centres unmarked) [Compound 27, 14-tert-Butoxycarbonylamino-18-(6-methoxy-isoquinolin-1-yloxy)-2,15-dioxo-10-oxa-3,16-diaza-tricyclo[14.3.0.0^4,6]nonadec-7-ene-4-carboxylic acid], for which the pIC50 is 6.30 to 7.30.

Still in this assay, the particulars now being: NS3/4A BMS strain; activity range symbols.
`O=C(N[C@H]1CCCCC/C=C\[C@@H]2C[C@@]2(C(=O)NS(=O)(=O)C2CC2)NC(=O)[C@@H]2C[C@@H](Oc3nccc4ccccc34)CN2C1=O)O[C@H]1CCOC1` [Compound 15, [4-Cyclopropanesulfonylaminocarbonyl-18-(isoquinolin-1-yloxy)-2,15-dioxo-3,16-diaza-tricyclo[14.3.0.0^4,6]nonadec-7-en-14-yl]-carbamic acid tetrahydro-furan-3-yl ester]: the negative-log IC50 (pIC50) is over 7.30.
Regarding `CC(C)OC(=O)N[C@H]1CCCCC/C=C\[C@@H]2C[C@@]2(C(=O)NS(=O)(=O)C2CC2)NC(=O)[C@@H]2C[C@@H](Oc3nccc4ccccc34)CN2C1=O` [Compound 16, [4-Cyclopropanesulfonylaminocarbonyl-18-(isoquinolin-1-yloxy)-2,15-dioxo-3,16-diaza-tricyclo[14.3.0.0^4,6]nonadec-7-en-14-yl]-carbamic acid isopropyl ester], the pIC50 is over 7.30.
`COc1ccc2c(O[C@@H]3C[C@H]4C(=O)N[C@]5(C(=O)NS(=O)(=O)C6CC6)C[C@H]5/C=C\CCCCC[C@H](NC(=O)OC(C)(C)C)C(=O)N4C3)nccc2c1` [Compound 17B, [4-Cyclopropanesulfonylaminocarbonyl-18-(6-methoxy-isoquinolin-1-yloxy)-2,15-dioxo-3,16-diaza-tricyclo[14.3.0.0^4,6]nonadec-7-en-14-yl]-carbamic acid tert-butyl ester]: the pIC50 was over 7.30.
Same read-out and setting: with `COc1ccc2c(OC3C[C@H]4C(=O)N[C@]5(C(=O)NS(=O)(=O)C6CC6)C[C@H]5/C=C\CCCSC[C@H](NC(=O)OC(C)(C)C)C(=O)N4C3)nccc2c1` (some centres unmarked) [Compound 18B, [4-Cyclopropanesulfonylaminocarbonyl-18-(6-methoxy-isoquinolin-1-yloxy)-2,15-dioxo-12-thia-3,16-diaza-tricyclo[14.3.0.0^4,6]nonadec-7-en-14-yl]-carbamic acid tert-butyl ester] the figure was over 7.30.
For the compound `COc1ccc2c(O[C@@H]3C[C@H]4C(=O)N[C@]5(C(=O)NS(=O)(=O)C6CC6)C[C@H]5/C=C\CCCS(=O)(=O)C[C@H](NC(=O)OC(C)(C)C)C(=O)N4C3)nccc2c1` [Compound 19], the pIC50 is over 7.30.
With `O=C(NC1CCCCCC=CC2CC2(C(=O)NS(=O)(=O)C2CC2)NC(=O)C2CC(Oc3nccc4ccccc34)CN2C1=O)OC1CCCC1` (centres unmarked) [Compound 20], the pIC50 was over 7.30.
The same measure, in the same setting: with `COc1c(NC2CCCCCC=CC3CC3(C(=O)NS(=O)(=O)C3CC3)NC(=O)C3CC(Oc4nccc5ccccc45)CN3C2=O)c(=O)c1=O` (centres unmarked) [Compound 21] the figure was over 7.30; with `O=C(CC1CC1)NC1CCCCCC=CC2CC2(C(=O)NS(=O)(=O)C2CC2)NC(=O)C2CC(Oc3nccc4ccccc34)CN2C1=O` (centres unmarked) [Compound 22], over 7.30; with `CCCNC(=O)NC1CCCCCC=CC2CC2(C(=O)NS(=O)(=O)C2CC2)NC(=O)C2CC(Oc3nccc4ccccc34)CN2C1=O` (centres unmarked) [Compound 23], over 7.30.
Same read-out and setting: with `COCC(=O)NC1CCCCCC=CC2CC2(C(=O)NS(=O)(=O)C2CC2)NC(=O)C2CC(Oc3nccc4ccccc34)CN2C1=O` (centres unmarked) [Compound 24] the figure was over 7.30; with `CS(=O)(=O)NC1CCCCCC=CC2CC2(C(=O)NS(=O)(=O)C2CC2)NC(=O)C2CC(Oc3nccc4ccccc34)CN2C1=O` (centres unmarked) [Compound 25], over 7.30.
With `CC(=O)NC1CCCCCC=CC2CC2(C(=O)NS(=O)(=O)C2CC2)NC(=O)C2CC(Oc3nccc4ccccc34)CN2C1=O` (centres unmarked) [Compound 26], the pIC50 was over 7.30.
Take `COc1ccc2c(OC3CC4C(=O)NC5(C(=O)NS(=O)(=O)C6CC6)CC5C=CCOCCCC(NC(=O)OC(C)(C)C)C(=O)N4C3)nccc2c1` (centres unmarked) [Compound 28, [4-Cyclopropanesulfonylaminocarbonyl-18-(6-methoxy-isoquinolin-1-yloxy)-2,15-dioxo-10-oxa-3,16-diaza-tricyclo[14.3.0.0^4,6]nonadec-7-en-14-yl]-carbamic acid tert-butyl ester]: the negative logarithm of the IC50 (pIC50) is over 7.30.
On to `COc1ccc2c(OC3CC4C(=O)NC5(C(=O)NS(=O)(=O)C6(C)CC6)CC5C=CCOCCCC(NC(=O)OC(C)(C)C)C(=O)N4C3)nccc2c1` (centres unmarked) [Compound 29], for which the pIC50 was over 7.30.
On the same count and under the same terms, with `CCC1(S(=O)(=O)NC(=O)C23CC2C=CCOCCCC(NC(=O)OC(C)(C)C)C(=O)N2CC(Oc4nccc5cc(OC)ccc45)CC2C(=O)N3)CC1` (centres unmarked) [Compound 30] the figure was over 7.30; with `COc1ccc2c(OC3CC4C(=O)NC5(C(=O)NS(=O)(=O)C6CC6)CC5C=CCOCCCC(NC(=O)OC(C)C)C(=O)N4C3)nccc2c1` (centres unmarked) [Compound 31], over 7.30; with `COc1ccc2c(OC3CC4C(=O)NC5(C(=O)NS(=O)(=O)C6CC6)CC5C=CCOCCCC(NC(=O)OCC(C)(C)C)C(=O)N4C3)nccc2c1` (centres unmarked) [Compound 32], over 7.30.
Same read-out and setting: with `COc1ccc2c(OC3CC4C(=O)NC5(C(=O)NS(=O)(=O)C6CC6)CC5C=CCOCCCC(NC(=O)NC5CCCC5)C(=O)N4C3)nccc2c1` (centres unmarked) [Compound 33] the figure was over 7.30.
Turning to `COc1ccc2c(OC3CC4C(=O)NC5(C(=O)NS(=O)(=O)C6CC6)CC5C=CCOCCCC(NC(=O)NC(C)(C)C)C(=O)N4C3)nccc2c1` (centres unmarked) [Compound 34], the pIC50 was over 7.30.
`COc1ccc2c(OC3CC4C(=O)NC5(C(=O)NS(=O)(=O)C6(C)CC6)CC5C=CCOCCCC(NC(=O)OC(C)C)C(=O)N4C3)nccc2c1` (centres unmarked) [Compound 35]: the pIC50 is over 7.30.
Still for that read-out and setting: with `COc1ccc2c(OC3CC4C(=O)NC5(C(=O)NS(=O)(=O)C6(C)CC6)CC5C=CCOCCCC(NC(=O)NC5CCCC5)C(=O)N4C3)nccc2c1` (centres unmarked) [Compound 36] the figure was over 7.30; with `CCC1(S(=O)(=O)NC(=O)C23CC2C=CCOCCCC(NC(=O)OC(C)C)C(=O)N2CC(Oc4nccc5cc(OC)ccc45)CC2C(=O)N3)CC1` (centres unmarked) [Compound 37], over 7.30.
Take `CCC1(S(=O)(=O)NC(=O)C23CC2C=CCOCCCC(NC(=O)NC2CCCC2)C(=O)N2CC(Oc4nccc5cc(OC)ccc45)CC2C(=O)N3)CC1` (centres unmarked) [Compound 38]: the pIC50 is over 7.30.
